Test results: the kinase profiling compilation of Christmann-Franck et al. (2016)

Tests used:
Experiment in all cases: KINOMEscan competition binding
Settings in all cases: compound 10.0 µM
[1] = molecular target: PRKCQ (human) (UniProt Q04759)
[2] = molecular target: IKBKE (human) (UniProt Q14164)
[3] = molecular target: AXL (human) (UniProt P30530)
[4] = molecular target: PAK4 (human) (UniProt O96013)
[5] = molecular target: ACVR1B (human) (UniProt P36896)
[6] = molecular target: FGR (human) (UniProt P09769)
[7] = molecular target: DYRK1A (human) (UniProt Q13627)
[8] = molecular target: FGFR1 (human) (UniProt P11362)
[9] = molecular target: TXK (human) (UniProt P42681)
[10] = molecular target: PHKG1 (human) (UniProt Q16816)
[11] = molecular target: BMPR2 (human) (UniProt Q13873)
[12] = molecular target: AKT2 (human) (UniProt P31751)
[13] = molecular target: GRK1 (human) (UniProt Q15835)
[14] = molecular target: PIP4K2B (human) (UniProt P78356)
[15] = molecular target: MYLK3 (human) (UniProt Q32MK0)
[16] = molecular target: MAP4K1 (human) (UniProt Q92918)
[17] = molecular target: TYRO3 (human) (UniProt Q06418)
[18] = molecular target: PRKACA (human) (UniProt P17612)
[19] = molecular target: CASK (human) (UniProt O14936)
[20] = molecular target: RPS6KA1 KD1 (human) (UniProt Q15418)
[21] = molecular target: SRMS (human) (UniProt Q9H3Y6)
[22] = molecular target: SRPK1 (human) (UniProt Q96SB4)
[23] = molecular target: RPS6KA5 KD1 (human) (UniProt O75582)
[24] = molecular target: MAPKAPK2 (human) (UniProt P49137)
[25] = molecular target: EPHA4 (human) (UniProt P54764)
[26] = molecular target: ACVR2A (human) (UniProt P27037)
[27] = molecular target: CDK7 (human) (UniProt P50613)
[28] = molecular target: HUNK (human) (UniProt P57058)
[29] = molecular target: PRKAA2 (human) (UniProt P54646)
[30] = molecular target: PRKD1 (human) (UniProt Q15139)
[31] = molecular target: PRKX (human) (UniProt P51817)
[32] = test system: EGFR (human), P00533 [L858R]
[33] = molecular target: ACVR1 (human) (UniProt Q04771)
[34] = molecular target: NEK4 (human) (UniProt P51957)
[35] = test system: LRRK2 (human), Q5S007 [G2019S]
[36] = molecular target: FYN (human) (UniProt P06241)
[37] = molecular target: JAK1 JH1 catalytic (human) (UniProt P23458)
[38] = molecular target: CIT (human) (UniProt O14578)
[39] = molecular target: MAP3K13 (human) (UniProt O43283)
[40] = molecular target: DMPK (human) (UniProt Q09013)

Chain of ACVR1 (human) (Q04771 whole entry, looked up): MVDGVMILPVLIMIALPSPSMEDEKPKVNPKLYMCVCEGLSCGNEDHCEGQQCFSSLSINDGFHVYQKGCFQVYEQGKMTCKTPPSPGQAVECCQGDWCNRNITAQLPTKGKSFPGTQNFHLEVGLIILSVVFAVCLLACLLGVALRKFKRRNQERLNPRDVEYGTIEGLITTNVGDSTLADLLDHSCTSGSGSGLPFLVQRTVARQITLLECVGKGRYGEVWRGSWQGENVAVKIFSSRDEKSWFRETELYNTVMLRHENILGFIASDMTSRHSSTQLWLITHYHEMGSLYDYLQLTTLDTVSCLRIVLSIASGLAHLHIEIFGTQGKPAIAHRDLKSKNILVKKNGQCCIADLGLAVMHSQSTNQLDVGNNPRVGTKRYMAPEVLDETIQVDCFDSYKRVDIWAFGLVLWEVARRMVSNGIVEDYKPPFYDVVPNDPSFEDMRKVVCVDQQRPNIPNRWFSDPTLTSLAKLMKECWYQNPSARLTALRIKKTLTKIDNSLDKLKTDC
Chain of SRMS (human) (Q9H3Y6 whole entry, looked up): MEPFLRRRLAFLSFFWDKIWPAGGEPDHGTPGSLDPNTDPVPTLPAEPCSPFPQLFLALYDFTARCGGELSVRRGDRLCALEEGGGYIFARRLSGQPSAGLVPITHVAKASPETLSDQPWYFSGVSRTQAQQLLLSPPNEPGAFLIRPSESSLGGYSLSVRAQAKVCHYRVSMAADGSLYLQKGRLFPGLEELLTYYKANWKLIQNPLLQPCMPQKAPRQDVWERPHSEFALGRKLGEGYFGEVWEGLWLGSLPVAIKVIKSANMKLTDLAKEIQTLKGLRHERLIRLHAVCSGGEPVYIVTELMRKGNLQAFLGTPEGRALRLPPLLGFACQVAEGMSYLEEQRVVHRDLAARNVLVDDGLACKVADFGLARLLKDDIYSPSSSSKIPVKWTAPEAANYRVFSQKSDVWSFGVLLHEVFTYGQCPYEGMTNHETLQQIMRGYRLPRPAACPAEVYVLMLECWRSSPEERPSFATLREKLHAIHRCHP
Chain of MAP4K1 (human) (Q92918 whole entry, looked up): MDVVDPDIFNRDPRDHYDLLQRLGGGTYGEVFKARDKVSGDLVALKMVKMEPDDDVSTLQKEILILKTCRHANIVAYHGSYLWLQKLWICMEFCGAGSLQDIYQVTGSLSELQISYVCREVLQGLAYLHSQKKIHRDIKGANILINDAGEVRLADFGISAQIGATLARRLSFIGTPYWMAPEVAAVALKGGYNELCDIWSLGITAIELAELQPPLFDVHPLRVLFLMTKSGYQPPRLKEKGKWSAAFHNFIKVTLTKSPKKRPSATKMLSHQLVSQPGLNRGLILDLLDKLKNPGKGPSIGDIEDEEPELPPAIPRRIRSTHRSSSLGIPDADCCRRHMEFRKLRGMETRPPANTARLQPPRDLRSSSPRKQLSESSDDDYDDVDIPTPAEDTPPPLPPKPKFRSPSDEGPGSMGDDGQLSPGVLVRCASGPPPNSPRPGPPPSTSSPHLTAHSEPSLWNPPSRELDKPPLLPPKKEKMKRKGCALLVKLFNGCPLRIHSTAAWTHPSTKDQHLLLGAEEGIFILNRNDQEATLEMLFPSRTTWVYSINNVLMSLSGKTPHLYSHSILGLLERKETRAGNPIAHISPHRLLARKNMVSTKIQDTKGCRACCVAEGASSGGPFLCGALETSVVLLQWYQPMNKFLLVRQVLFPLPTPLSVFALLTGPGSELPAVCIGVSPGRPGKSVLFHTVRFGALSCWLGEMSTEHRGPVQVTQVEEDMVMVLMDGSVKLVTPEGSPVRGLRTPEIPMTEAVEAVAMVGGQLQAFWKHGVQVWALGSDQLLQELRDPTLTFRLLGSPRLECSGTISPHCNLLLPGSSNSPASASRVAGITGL
Chain of FGR (human) (P09769 whole entry, looked up): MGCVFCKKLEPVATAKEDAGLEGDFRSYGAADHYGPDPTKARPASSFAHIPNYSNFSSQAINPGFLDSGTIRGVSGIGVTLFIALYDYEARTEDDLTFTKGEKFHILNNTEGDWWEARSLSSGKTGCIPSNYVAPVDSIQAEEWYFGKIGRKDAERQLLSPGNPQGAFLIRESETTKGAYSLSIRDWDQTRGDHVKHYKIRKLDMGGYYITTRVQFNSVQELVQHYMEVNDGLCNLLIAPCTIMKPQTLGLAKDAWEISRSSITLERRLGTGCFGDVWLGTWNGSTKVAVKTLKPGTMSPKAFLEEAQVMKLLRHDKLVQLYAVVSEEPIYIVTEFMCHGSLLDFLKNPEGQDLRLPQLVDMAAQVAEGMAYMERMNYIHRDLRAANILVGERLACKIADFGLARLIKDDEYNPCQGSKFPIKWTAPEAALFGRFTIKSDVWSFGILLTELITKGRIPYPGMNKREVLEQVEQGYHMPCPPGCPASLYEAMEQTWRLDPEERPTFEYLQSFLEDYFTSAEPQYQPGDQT
Chain of FYN (human) (P06241 whole entry, looked up): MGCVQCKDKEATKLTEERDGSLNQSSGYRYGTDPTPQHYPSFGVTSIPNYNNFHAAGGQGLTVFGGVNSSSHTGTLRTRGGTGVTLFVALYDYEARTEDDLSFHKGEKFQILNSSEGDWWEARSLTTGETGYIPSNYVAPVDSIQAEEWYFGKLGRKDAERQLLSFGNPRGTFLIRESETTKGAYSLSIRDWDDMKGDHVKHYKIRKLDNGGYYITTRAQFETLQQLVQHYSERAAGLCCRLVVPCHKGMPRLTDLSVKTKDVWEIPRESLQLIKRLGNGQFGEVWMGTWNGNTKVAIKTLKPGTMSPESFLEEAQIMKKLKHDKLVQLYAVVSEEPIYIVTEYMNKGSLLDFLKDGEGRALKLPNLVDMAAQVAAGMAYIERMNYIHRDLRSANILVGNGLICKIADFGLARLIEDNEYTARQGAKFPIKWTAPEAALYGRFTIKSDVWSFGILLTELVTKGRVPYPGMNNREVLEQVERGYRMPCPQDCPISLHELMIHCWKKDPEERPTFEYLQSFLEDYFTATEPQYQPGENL
Chain of RPS6KA1 KD1 (human) (Q15418 whole entry, looked up): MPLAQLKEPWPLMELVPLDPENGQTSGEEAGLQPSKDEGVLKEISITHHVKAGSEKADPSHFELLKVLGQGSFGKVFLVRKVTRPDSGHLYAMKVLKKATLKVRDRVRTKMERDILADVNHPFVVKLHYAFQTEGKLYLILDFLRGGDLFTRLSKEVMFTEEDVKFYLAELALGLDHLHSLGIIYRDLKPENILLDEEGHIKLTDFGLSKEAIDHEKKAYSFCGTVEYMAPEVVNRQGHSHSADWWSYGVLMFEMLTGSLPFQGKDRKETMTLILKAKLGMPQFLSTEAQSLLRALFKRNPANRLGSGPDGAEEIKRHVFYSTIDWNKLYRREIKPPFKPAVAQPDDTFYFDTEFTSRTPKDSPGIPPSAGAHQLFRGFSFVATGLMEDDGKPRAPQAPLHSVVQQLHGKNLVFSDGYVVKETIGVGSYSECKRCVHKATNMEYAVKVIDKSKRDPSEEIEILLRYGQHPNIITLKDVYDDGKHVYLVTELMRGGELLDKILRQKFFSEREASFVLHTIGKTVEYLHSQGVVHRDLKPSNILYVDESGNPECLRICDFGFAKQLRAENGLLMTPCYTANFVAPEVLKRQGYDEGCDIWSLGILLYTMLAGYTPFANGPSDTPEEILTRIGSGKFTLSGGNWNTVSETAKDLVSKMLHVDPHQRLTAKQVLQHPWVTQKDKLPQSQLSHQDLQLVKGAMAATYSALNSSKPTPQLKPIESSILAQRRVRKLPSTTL
Chain of EPHA4 (human) (P54764 whole entry, looked up): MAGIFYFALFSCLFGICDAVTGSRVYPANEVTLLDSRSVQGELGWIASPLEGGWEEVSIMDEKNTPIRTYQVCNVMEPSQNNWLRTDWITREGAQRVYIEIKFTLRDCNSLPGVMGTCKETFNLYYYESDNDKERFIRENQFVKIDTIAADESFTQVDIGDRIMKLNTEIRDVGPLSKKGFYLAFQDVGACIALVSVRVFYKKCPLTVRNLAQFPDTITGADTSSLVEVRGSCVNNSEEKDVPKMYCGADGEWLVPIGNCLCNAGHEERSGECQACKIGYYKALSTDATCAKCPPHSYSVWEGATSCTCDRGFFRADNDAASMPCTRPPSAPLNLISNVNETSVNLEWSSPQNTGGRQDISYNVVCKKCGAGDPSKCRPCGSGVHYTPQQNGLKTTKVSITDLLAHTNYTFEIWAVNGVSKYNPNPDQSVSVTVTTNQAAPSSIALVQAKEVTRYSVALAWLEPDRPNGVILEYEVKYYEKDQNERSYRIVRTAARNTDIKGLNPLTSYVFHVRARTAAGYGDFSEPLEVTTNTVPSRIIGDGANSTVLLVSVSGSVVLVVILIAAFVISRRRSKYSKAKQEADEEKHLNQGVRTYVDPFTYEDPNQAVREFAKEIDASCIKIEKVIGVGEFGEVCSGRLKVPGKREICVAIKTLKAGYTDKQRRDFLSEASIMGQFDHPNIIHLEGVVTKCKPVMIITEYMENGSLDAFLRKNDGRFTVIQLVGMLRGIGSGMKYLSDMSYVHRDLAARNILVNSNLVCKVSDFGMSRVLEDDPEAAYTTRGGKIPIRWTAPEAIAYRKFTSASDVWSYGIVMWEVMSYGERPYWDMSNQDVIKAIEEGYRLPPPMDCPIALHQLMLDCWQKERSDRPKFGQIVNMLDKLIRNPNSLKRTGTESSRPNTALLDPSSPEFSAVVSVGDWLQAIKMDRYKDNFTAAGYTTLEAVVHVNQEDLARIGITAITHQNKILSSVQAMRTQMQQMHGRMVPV
Chain of MAPKAPK2 (human) (P49137 whole entry, looked up): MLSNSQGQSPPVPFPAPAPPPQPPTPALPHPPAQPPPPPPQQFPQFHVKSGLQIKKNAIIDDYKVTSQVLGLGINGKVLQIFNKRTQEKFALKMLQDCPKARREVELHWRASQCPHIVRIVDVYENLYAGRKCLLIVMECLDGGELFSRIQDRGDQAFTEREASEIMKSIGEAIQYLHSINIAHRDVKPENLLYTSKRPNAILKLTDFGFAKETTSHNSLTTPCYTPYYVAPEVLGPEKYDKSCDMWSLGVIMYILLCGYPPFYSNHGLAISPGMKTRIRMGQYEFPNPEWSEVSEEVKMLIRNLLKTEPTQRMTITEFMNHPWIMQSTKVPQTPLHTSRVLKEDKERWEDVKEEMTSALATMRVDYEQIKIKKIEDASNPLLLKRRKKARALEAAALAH

Question: For CNC(=O)Nc1ccc(-c2nc(N3CC4CCC(C3)O4)c3cnn(C4CCC5(CC4)OCCO5)c3n2)cc1, which kinase still bound, per cent of control [1] is on record?
Answer: 100%

Question: What about the kinase still bound, per cent of control [2] of the same compound?
Answer: 100%

Question: And the kinase still bound, per cent of control [3]?
Answer: 88%

Question: And the kinase still bound, per cent of control [4]?
Answer: 100%

Question: What about the kinase still bound, per cent of control [5] of the same compound?
Answer: 100%

Question: And the kinase still bound, per cent of control [6]?
Answer: 100%

Question: And the kinase still bound, per cent of control [7]?
Answer: 100%

Question: And the kinase still bound, per cent of control [8]?
Answer: 100%

Question: And the kinase still bound, per cent of control [9]?
Answer: 94%

Question: What about the kinase still bound, per cent of control [10] of the same compound?
Answer: 100%

Question: What about the kinase still bound, per cent of control [11] of the same compound?
Answer: 83%

Question: What about the kinase still bound, per cent of control [12] of the same compound?
Answer: 100%

Question: What about the kinase still bound, per cent of control [13] of the same compound?
Answer: 100%

Question: And the kinase still bound, per cent of control [14]?
Answer: 100%

Question: What about the kinase still bound, per cent of control [15] of the same compound?
Answer: 100%

Question: What about the kinase still bound, per cent of control [16] of the same compound?
Answer: 94%

Question: What about the kinase still bound, per cent of control [17] of the same compound?
Answer: 100%

Question: What about the kinase still bound, per cent of control [18] of the same compound?
Answer: 75%

Question: What about the kinase still bound, per cent of control [19] of the same compound?
Answer: 64%

Question: And the kinase still bound, per cent of control [20]?
Answer: 100%

Question: What about the kinase still bound, per cent of control [21] of the same compound?
Answer: 97%

Question: What about the kinase still bound, per cent of control [22] of the same compound?
Answer: 100%

Question: And the kinase still bound, per cent of control [23]?
Answer: 86%

Question: What about the kinase still bound, per cent of control [24] of the same compound?
Answer: 82%

Question: And the kinase still bound, per cent of control [25]?
Answer: 100%

Question: And the kinase still bound, per cent of control [26]?
Answer: 78%

Question: And the kinase still bound, per cent of control [27]?
Answer: 88%

Question: What about the kinase still bound, per cent of control [28] of the same compound?
Answer: 100%

Question: What about the kinase still bound, per cent of control [29] of the same compound?
Answer: 93%

Question: And the kinase still bound, per cent of control [30]?
Answer: 100%

Question: And the kinase still bound, per cent of control [31]?
Answer: 100%

Question: What about the kinase still bound, per cent of control [32] of the same compound?
Answer: 53%

Question: What about the kinase still bound, per cent of control [33] of the same compound?
Answer: 90%

Question: And the kinase still bound, per cent of control [34]?
Answer: 82%

Question: And the kinase still bound, per cent of control [35]?
Answer: 65%

Question: And the kinase still bound, per cent of control [36]?
Answer: 70%

Question: What about the kinase still bound, per cent of control [37] of the same compound?
Answer: 82%

Question: And the kinase still bound, per cent of control [38]?
Answer: 100%

Question: And the kinase still bound, per cent of control [39]?
Answer: 82%

Question: And the kinase still bound, per cent of control [40]?
Answer: 83%

Question: Which results are given for COc1cc2c(Nc3ccc(NC(=O)c4ccccc4)cc3)ncnc2cc1OCCCN1CCOCC1?
Answer: kinase still bound, per cent of control [1]: 100%; kinase still bound, per cent of control [2]: 62%; kinase still bound, per cent of control [3]: 1.8%; kinase still bound, per cent of control [4]: 100%; kinase still bound, per cent of control [5]: 100%; kinase still bound, per cent of control [6]: 19%; kinase still bound, per cent of control [7]: 58%; kinase still bound, per cent of control [8]: 94%; kinase still bound, per cent of control [9]: 99%; kinase still bound, per cent of control [10]: 53%; kinase still bound, per cent of control [11]: 81%; kinase still bound, per cent of control [12]: 100%; kinase still bound, per cent of control [13]: 100%; kinase still bound, per cent of control [14]: 100%; kinase still bound, per cent of control [15]: 100%; kinase still bound, per cent of control [16]: 60%; kinase still bound, per cent of control [17]: 60%; kinase still bound, per cent of control [18]: 100%; kinase still bound, per cent of control [19]: 100%; kinase still bound, per cent of control [20]: 72%; kinase still bound, per cent of control [21]: 2.4%; kinase still bound, per cent of control [22]: 100%; kinase still bound, per cent of control [23]: 100%; kinase still bound, per cent of control [24]: 100%; kinase still bound, per cent of control [25]: 98%; kinase still bound, per cent of control [26]: 100%; kinase still bound, per cent of control [27]: 6.5%; kinase still bound, per cent of control [28]: 81%; kinase still bound, per cent of control [29]: 72%; kinase still bound, per cent of control [30]: 99%; kinase still bound, per cent of control [31]: 81%; kinase still bound, per cent of control [32]: 8.8%; kinase still bound, per cent of control [33]: 100%; kinase still bound, per cent of control [34]: 57%; kinase still bound, per cent of control [35]: 100%; kinase still bound, per cent of control [36]: 55%; kinase still bound, per cent of control [37]: 100%; kinase still bound, per cent of control [38]: 59%; kinase still bound, per cent of control [39]: 27%; kinase still bound, per cent of control [40]: 100%
